Tested on: Acinetobacter baumannii ATCC17961
Test: Antimicrobial susceptibility testing: 90% growth inhibitory concentration (IC90) determination
Assay type: cell-based
Settings: ATCC17961, 90% growth inhibitory concentration, Iso-Sensitest broth, OD 600 nm over 16 h, 35±2° C., read-out: ATCC 17961 IC90
Method: Assay Procedures Antimicrobial Susceptibility Testing: 90% Growth Inhibitory Concentration (IC90) Determination
The in vitro antimicrobial activity of the compounds was determined according to the following procedure:
The assay used a 10-points Iso-Sensitest broth medium to measure quantitatively the in vitro activity of the compounds against Acinetobacter baumannii ATCC17961.
Stock compounds in DMSO were serially twofold diluted (e.g. range from 50 to 0.097 μM final concentration) in 384 wells microtiter plates and inoculated with 49 μl the bacterial suspension in Iso-Sensitest medium to have a final cell concentration of ˜5×10^5 CFU/ml in a final volume/well of 50 μl/well. Microtiter plates were incubated at 35±2° C.
Bacterial cell growth was determined with the measurement of optical density at λ=600 nm each 20 minutes over a time course of 16 h. Growth inhibition was calculated during the logarithmic growth of the bacterial cells with determination of the concentration inhibiting 50% (IC50) and 90% (IC90) of the growth.
Table 1 provides the 90% growth inhibitory concentrations (IC90) in micromoles per liter of the compounds of present invention obtained against the strain Acinetobacter baumannii ATCC17961.

**Q.** Which IC90 does the source give for `CN(C)c1nc(F)c(-c2cnc(C(=O)Nc3ccc(C(=O)N4CCN(C(=O)CC5CCNCC5)CC4)c(Cl)c3)n2C)cc1F` [Example F6, N-[3-chloro-4-[4-[2-(4-piperidyl)acetyl]piperazine-1-carbonyl]phenyl]-5-[6-(dimethylamino)-2,5-difluoro-3-pyridyl]-1-methyl-imidazole-2-carboxamide] here?
**A.** Its IC90 is 660 nM.

**Q.** With `CN(C)c1nc(F)c(-c2cnc(C(=O)Nc3ccc(C(=O)N4CCN(C(=O)C5CC(CN)C5)CC4)c(Cl)c3)n2C)cc1F` (stereo not shown) [Example F7, N-[4-[4-[3-(aminomethyl)cyclobutanecarbonyl]piperazine-1-carbonyl]-3-chloro-phenyl]-5-[6-(dimethylamino)-2,5-difluoro-3-pyridyl]-1-methyl-imidazole-2-carboxamide] as the compound, how does the IC90 read?
**A.** Its IC90 is 390 nM.

**Q.** For `CN(C)c1nc(F)c(-c2cnc(C(=O)Nc3ccc(C(=O)NC4CCN(C(=O)[C@@H]5C[C@@H](O)CN5)CC4)c(Cl)c3)n2C)cc1F` [Example F9, N-[3-chloro-4-[[1-[(2S,4R)-4-hydroxypyrrolidine-2-carbonyl]-4-piperidyl]carbamoyl]phenyl]-5-[6-(dimethylamino)-2,5-difluoro-3-pyridyl]-1-methyl-imidazole-2-carboxamide], which IC90 is on record?
**A.** The IC90 was 1900 nM.

**Q.** How did the IC90 turn out when `CN(C)c1nc(F)c(-c2cnc(C(=O)Nc3ccc(C(=O)N4CCC(C(=O)NC5CCNC5)CC4)c(Cl)c3)n2C)cc1F` (stereo not shown) [Example F10, 1-[2-chloro-4-[[5-[6-(dimethylamino)-2,5-difluoro-3-pyridyl]-1-methyl-imidazole-2-carbonyl]amino]benzoyl]-N-pyrrolidin-3-yl-piperidine-4-carboxamide] was run?
**A.** Its IC90 is 640 nM.

Reference: patent US12595255B2, “Heteroaryl-substituted imidazole derivatives” (Hoffmann-La Roche Inc., priority 2021, dated 2026)
